≈ marks a conversion by molar mass, not a printed value.
How the values were obtained:
Format in all cases: functional
Bemisia tabaci [1] = experiment: Insecticidal activity against Bemisia tabaci biotype-Q Q1 (sweet potato whitefly) after 48 hr by leaf-dip bioassay; conditions: biotype-Q Q1, 48 h
Bemisia tabaci [2] = experiment: Resistance ratio of LC50 for Bemisia tabaci biotype-B B4 (sweet potato whitefly) to LC50 for Bemisia tabaci LABS
Bemisia tabaci [3] = experiment: Resistance ratio of LC50 for Bemisia tabaci biotype-Q Q1 (sweet potato whitefly) to LC50 for Bemisia tabaci LABS
Bemisia tabaci [4] = experiment: Insecticidal activity against Bemisia tabaci biotype-B B4 (sweet potato whitefly) after 48 hr by leaf-dip bioassay; conditions: biotype-B B4, 48 h
Bemisia tabaci [5] = experiment: Insecticidal activity against Bemisia tabaci biotype-B B1 (sweet potato whitefly) after 48 hr by leaf-dip bioassay; conditions: biotype-B B1, 48 h
Bemisia tabaci [6] = experiment: Resistance ratio of LC50 for Bemisia tabaci biotype-B B1 (sweet potato whitefly) to LC50 for Bemisia tabaci LABS
Bemisia tabaci [7] = experiment: Insecticidal activity against Bemisia tabaci biotype-B B3 (sweet potato whitefly) after 48 hr by leaf-dip bioassay; conditions: biotype-B B3, 48 h
Bemisia tabaci [8] = experiment: Resistance ratio of LC50 for Bemisia tabaci biotype-B B3 (sweet potato whitefly) to LC50 for Bemisia tabaci LABS
Bemisia tabaci [9] = experiment: Resistance ratio of LC50 for Bemisia tabaci biotype-Q Q3 (sweet potato whitefly) to LC50 for Bemisia tabaci LABS
Bemisia tabaci [10] = experiment: Insecticidal activity against Bemisia tabaci biotype-Q Q3 (sweet potato whitefly) after 48 hr by leaf-dip bioassay; conditions: biotype-Q Q3, 48 h
Bemisia tabaci [11] = experiment: Insecticidal activity against Bemisia tabaci biotype-Q Q2 (sweet potato whitefly) after 48 hr by leaf-dip bioassay; conditions: biotype-Q Q2, 48 h
Bemisia tabaci [12] = experiment: Insecticidal activity against Bemisia tabaci biotype-B B2 (sweet potato whitefly) after 48 hr by leaf-dip bioassay; conditions: biotype-B B2, 48 h
Bemisia tabaci [13] = experiment: Insecticidal activity against Bemisia tabaci LABS (sweet potato whitefly) after 48 hr by leaf-dip bioassay
Bemisia tabaci [14] = experiment: Resistance ratio of LC50 for Bemisia tabaci biotype-Q Q2 (sweet potato whitefly) to LC50 for Bemisia tabaci LABS
Bemisia tabaci [15] = experiment: Resistance ratio of LC50 for Bemisia tabaci biotype-B B2 (sweet potato whitefly) to LC50 for Bemisia tabaci LABS
Bemisia tabaci [16] = experiment: Insecticidal activity against Bemisia tabaci biotype-B B4 (sweet potato whitefly) after 96 hr by leaf-dip bioassay; conditions: biotype-B B4, 96 h
Bemisia tabaci [17] = experiment: Insecticidal activity against Bemisia tabaci biotype-Q Q2 (sweet potato whitefly) after 96 hr by leaf-dip bioassay; conditions: biotype-Q Q2, 96 h
Bemisia tabaci [18] = experiment: Insecticidal activity against Bemisia tabaci biotype-B B3 (sweet potato whitefly) after 96 hr by leaf-dip bioassay; conditions: biotype-B B3, 96 h
Bemisia tabaci [19] = experiment: Selectivity ratio of LC50 for thiamethoxam-selected Bemisia tabaci B1B3 (sweet potato whitefly) to LC50 for Bemisia tabaci B1B3
Bemisia tabaci [20] = experiment: Selectivity ratio of LC50 for pymetrozine-selected Bemisia tabaci B1B3 (sweet potato whitefly) to LC50 for Bemisia tabaci B1B3
Bemisia tabaci [21] = experiment: Insecticidal activity against Bemisia tabaci LABS (sweet potato whitefly) after 96 hr by leaf-dip bioassay
Bemisia tabaci [22] = experiment: Insecticidal activity against Bemisia tabaci B1B3 (sweet potato whitefly) after 96 hr by leaf-dip bioassay; conditions: B1B3, 96 h
Bemisia tabaci [23] = experiment: Insecticidal activity against pymetrozine-selected Bemisia tabaci B2 (sweet potato whitefly) after 96 hr by leaf-dip bioassay; conditions: B2, 96 h
Bemisia tabaci [24] = experiment: Insecticidal activity against pymetrozine-selected Bemisia tabaci B1B3 (sweet potato whitefly) after 96 hr by leaf-dip bioassay; conditions: B1B3, 96 h
Bemisia tabaci [25] = experiment: Insecticidal activity against Bemisia tabaci biotype-Q Q3 (sweet potato whitefly) after 96 hr by leaf-dip bioassay; conditions: biotype-Q Q3, 96 h
Bemisia tabaci [26] = experiment: Insecticidal activity against thiamethoxam-selected Bemisia tabaci B1B3 (sweet potato whitefly) after 96 hr by leaf-dip bioassay; conditions: B1B3, 96 h
Bemisia tabaci [27] = experiment: Insecticidal activity against Bemisia tabaci biotype-Q Q1 (sweet potato whitefly) after 96 hr by leaf-dip bioassay; conditions: biotype-Q Q1, 96 h
Bemisia tabaci [28] = experiment: Selectivity ratio of LC50 for pymetrozine-selected Bemisia tabaci B2 (sweet potato whitefly) to LC50 for Bemisia tabaci B2
Bemisia tabaci [29] = experiment: Insecticidal activity against Bemisia tabaci biotype-B B1 (sweet potato whitefly) after 96 hr by leaf-dip bioassay; conditions: biotype-B B1, 96 h
Bemisia tabaci [30] = experiment: Insecticidal activity against Bemisia tabaci biotype-B B2 (sweet potato whitefly) after 96 hr by leaf-dip bioassay; conditions: biotype-B B2, 96 h
Bemisia tabaci [31] = experiment: Insecticidal activity against pymetrozine-selected Bemisia tabaci B2 (sweet potato whitefly) after 48 hr by leaf-dip bioassay; conditions: B2, 48 h
Bemisia tabaci [32] = experiment: Insecticidal activity against pymetrozine-selected Bemisia tabaci B1B3 (sweet potato whitefly) after 48 hr by leaf-dip bioassay; conditions: B1B3, 48 h
Bemisia tabaci [33] = experiment: Insecticidal activity against thiamethoxam-selected Bemisia tabaci B1B3 (sweet potato whitefly) after 48 hr by leaf-dip bioassay; conditions: B1B3, 48 h
Bemisia tabaci [34] = experiment: Insecticidal activity against Bemisia tabaci B1B3 (sweet potato whitefly) after 48 hr by leaf-dip bioassay; conditions: B1B3, 48 h

Row | Structure (SMILES) | LC50 (Bemisia tabaci [1]) [µg/mL] | RatioLC50 (Bemisia tabaci [2]) | RatioLC50 (Bemisia tabaci [3]) | LC50 (Bemisia tabaci [4]) [µg/mL] | LC50 (Bemisia tabaci [5]) [µg/mL] | RatioLC50 (Bemisia tabaci [6]) | LC50 (Bemisia tabaci [7]) [µg/mL] | RatioLC50 (Bemisia tabaci [8]) | RatioLC50 (Bemisia tabaci [9]) | LC50 (Bemisia tabaci [10]) [µg/mL] | LC50 (Bemisia tabaci [11]) [µg/mL] | LC50 (Bemisia tabaci [12]) [µg/mL] | LC50 (Bemisia tabaci [13]) [µg/mL] | RatioLC50 (Bemisia tabaci [14]) | RatioLC50 (Bemisia tabaci [15]) | RatioLC50 (Bemisia tabaci [19]) | RatioLC50 (Bemisia tabaci [20]) | RatioLC50 (Bemisia tabaci [28]) | LC50 (Bemisia tabaci [31]) [µg/mL] | further results
1 | C/C(=N\C#N)N(C)Cc1ccc(Cl)nc1 [ACETAMIPRID] | 3.5 (≈ 15.7 µM) | 15 | 0.95 | 54 (≈ 243 µM) | 7.6 (≈ 34.1 µM) | 2.1 | 110 (≈ 494 µM) | 30 | 57 | 210 (≈ 943 µM) | 74 (≈ 332 µM) | 4.3 (≈ 19.3 µM) | 3.7 (≈ 16.6 µM) | 20 | 1.2 | – | – | – | – | –
2 | CC1=NNC(=O)N(/N=C/c2cccnc2)C1 [PYMETROZINE] | – | 520 | 5.8 | – | – | 1.6 | – | 1100 | 1900 | – | – | – | – | 390 | 92 | 7.9 | 23 | 54 | – | LC50 (Bemisia tabaci [16]): 1200 µg/mL (≈ 5520 µM); LC50 (Bemisia tabaci [17]): 930 µg/mL (≈ 4280 µM); LC50 (Bemisia tabaci [18]): 1200 µg/mL (≈ 5520 µM); LC50 (Bemisia tabaci [21]): 2.4 µg/mL (≈ 11 µM); LC50 (Bemisia tabaci [22]): 140 µg/mL (≈ 644 µM); LC50 (Bemisia tabaci [23]): 15000 µg/mL (≈ 69100 µM); LC50 (Bemisia tabaci [24]): 3200 µg/mL (≈ 14700 µM); LC50 (Bemisia tabaci [25]): 4600 µg/mL (≈ 21200 µM); LC50 (Bemisia tabaci [26]): 1100 µg/mL (≈ 5060 µM); LC50 (Bemisia tabaci [27]): 14 µg/mL (≈ 64.4 µM); LC50 (Bemisia tabaci [29]): 3.9 µg/mL (≈ 18 µM); LC50 (Bemisia tabaci [30]): 220 µg/mL (≈ 1010 µM)
3 | O=[N+]([O-])/N=C1\NCCN1Cc1ccc(Cl)nc1 [IMIDACLOPRID] | 8.5 (≈ 33.2 µM) | 230 | 1.8 | 1100 (≈ 4300 µM) | 5.8 (≈ 22.7 µM) | 1.2 | 1100 (≈ 4300 µM) | 230 | 850 | 4100 (≈ 16000 µM) | 2000 (≈ 7820 µM) | 17 (≈ 66.5 µM) | 4.8 (≈ 18.8 µM) | 420 | 3.5 | – | – | 0.92 | 23 (≈ 90 µM) | –
4 | CN1COCN(Cc2cnc(Cl)s2)/C1=N\[N+](=O)[O-] [THIAMETHOXAM] | 15 (≈ 51.4 µM) | 73 | 3.7 | 300 (≈ 1030 µM) | 4.5 (≈ 15.4 µM) | 6.3 | 100 (≈ 343 µM) | 150 | 490 | 2000 (≈ 6860 µM) | 980 (≈ 3360 µM) | 12 (≈ 41.1 µM) | 4.1 (≈ 14.1 µM) | 240 | 2.9 | 7 | 4.5 | 0.29 | 8.6 (≈ 29.5 µM) | LC50 (Bemisia tabaci [32]): 290 µg/mL (≈ 994 µM); LC50 (Bemisia tabaci [33]): 450 µg/mL (≈ 1540 µM); LC50 (Bemisia tabaci [34]): 64 µg/mL (≈ 219 µM)
